One series has as its target T1, 5-lipoxygenase (Rattus norvegicus, UniProt P12527).
T1 construct: endogenous in cells; host or cells: RBL-1
T1 sequence (P12527 1-673): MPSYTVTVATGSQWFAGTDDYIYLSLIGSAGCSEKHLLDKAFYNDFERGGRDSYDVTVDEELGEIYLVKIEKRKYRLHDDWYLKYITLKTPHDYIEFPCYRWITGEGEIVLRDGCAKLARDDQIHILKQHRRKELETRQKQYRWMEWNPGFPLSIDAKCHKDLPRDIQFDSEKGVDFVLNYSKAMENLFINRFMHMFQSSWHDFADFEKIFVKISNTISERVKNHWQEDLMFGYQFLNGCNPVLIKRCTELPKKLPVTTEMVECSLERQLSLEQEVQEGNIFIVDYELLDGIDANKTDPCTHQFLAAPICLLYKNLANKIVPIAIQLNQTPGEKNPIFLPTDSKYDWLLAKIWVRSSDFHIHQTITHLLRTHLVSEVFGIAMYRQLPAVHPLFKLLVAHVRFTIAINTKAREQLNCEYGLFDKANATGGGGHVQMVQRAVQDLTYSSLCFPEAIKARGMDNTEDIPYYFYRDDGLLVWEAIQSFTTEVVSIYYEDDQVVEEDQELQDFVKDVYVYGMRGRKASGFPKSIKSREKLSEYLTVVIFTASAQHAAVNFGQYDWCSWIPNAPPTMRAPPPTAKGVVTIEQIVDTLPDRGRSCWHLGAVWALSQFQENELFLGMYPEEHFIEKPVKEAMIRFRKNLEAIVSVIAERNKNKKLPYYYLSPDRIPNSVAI
In words: Inhibition of 5-lipoxygenase activity in RBL-1 cells (5-HETE production). It is filed as cell-based. To be noted: 37° C., 20 minutes, arachidonic acid + A-23187. How it is done:
10^7 RBL-1 cells (rat basophilic leukemia cells) are suspended in 0.5 ml of MCM (mast cell medium), and, then, a test solution (0.5 ml of MCM, 50 μg of arachidonic acid, 10 μg of A-23187 and 1 μM or 10 μM of the quinone compound) is added. The reaction is conducted at 37° C. for 20 minutes. After completion of the reaction, 4 ml of ethanol including 1,4-dimethoxy-2-methyl-3-(3-methoxypropyl)naphthalene are added (0.5 μg/ml) are added as an internal reference. After shaking well, the mixture is allowed to stand at room temperature for 10 minutes. Then, the mixture was centrifuged (2000 r.p.m./min.) for 10 minutes and the supernatant is separated. This supernatant is concentrated under reduced pressure to about 200 μl. To the concentrate is added a high performance liquid chromatography solvent [CH3 CN(1500): CH3 OH(500): water (1100): acetic acid(2); pH 5.6 (adjusted with aqueous ammonia)] to make a total of 1 ml. A 200 μl portion of this solution is taken and 5-HETE (5-hydroxyeicosatetraenoic acid) is assayed by high performance liquid chromatography. The degree of inhibition of 5-HETE production (IE) is expressed in terms of […], where a is the peak height or area after correction with the peak of the internal reference standard in the absence of the quinone compound and b is the peak height or area after correction with the peak of the internal reference standard in the presence of the quinone compound.

For the next series, the system named is collagen biosynthesis. The experiment in a line: Inhibitory activity of collagen biosynthesis (collagen content of the uterus, with 17β-estradiol). The series is classed as in vivo, SD strain rats (female, 3 weeks old). The note with it: for Degree of inhibition: uterus collagen. On the procedure: In accordance with the method of R. A. Salvador et al. [Arch. Biochem. Biophys. 174, 382 (1976)], 0.2 mg/kg of each test compound was intraperitoneally administered to SD strain rats (.female., 3 weeks old) once a day for 6 days. After that, the collagen content of the uterus was determined and compared with that of control experiment.
*Rats were used 3 animals as one group; initial body weights 41 ± 2- 4

Series [1] addresses T2, protocollagen-proline hydroxylase (Gallus gallus, UniProt P16924).
T2 construct: partially purified enzyme preparation obtained from chick embryos; from tissue; host or cells: chick embryos (partially purified enzyme)
T2 sequence (P16924 1-516): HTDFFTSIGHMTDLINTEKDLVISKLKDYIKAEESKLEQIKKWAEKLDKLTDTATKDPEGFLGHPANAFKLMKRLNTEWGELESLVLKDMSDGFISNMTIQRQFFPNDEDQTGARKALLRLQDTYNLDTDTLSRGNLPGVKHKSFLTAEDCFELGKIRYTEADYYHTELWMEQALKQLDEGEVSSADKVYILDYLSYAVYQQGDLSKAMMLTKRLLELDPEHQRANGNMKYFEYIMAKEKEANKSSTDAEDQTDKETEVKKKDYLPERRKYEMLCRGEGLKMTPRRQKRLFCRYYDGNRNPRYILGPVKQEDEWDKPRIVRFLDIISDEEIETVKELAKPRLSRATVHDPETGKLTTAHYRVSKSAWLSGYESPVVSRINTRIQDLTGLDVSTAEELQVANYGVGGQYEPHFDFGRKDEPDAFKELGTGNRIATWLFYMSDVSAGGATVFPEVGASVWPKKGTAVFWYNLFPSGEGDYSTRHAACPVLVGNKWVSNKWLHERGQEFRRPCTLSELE
T2 sequence (P09102 23-515 partner): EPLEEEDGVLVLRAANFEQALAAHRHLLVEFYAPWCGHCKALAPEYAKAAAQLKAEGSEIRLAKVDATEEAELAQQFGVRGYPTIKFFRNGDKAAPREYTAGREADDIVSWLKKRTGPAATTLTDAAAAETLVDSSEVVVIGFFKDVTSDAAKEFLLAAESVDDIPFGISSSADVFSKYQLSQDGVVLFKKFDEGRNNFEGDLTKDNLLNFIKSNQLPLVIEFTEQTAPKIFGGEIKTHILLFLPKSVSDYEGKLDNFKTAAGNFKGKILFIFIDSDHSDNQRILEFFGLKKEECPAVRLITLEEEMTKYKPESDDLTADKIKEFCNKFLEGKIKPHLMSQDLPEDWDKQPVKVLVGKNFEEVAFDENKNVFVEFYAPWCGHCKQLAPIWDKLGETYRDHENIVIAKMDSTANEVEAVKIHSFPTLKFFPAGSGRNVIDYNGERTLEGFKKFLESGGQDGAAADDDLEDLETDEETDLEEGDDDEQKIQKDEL
The experiment in a line: Inhibitory activity of protocollagen-proline hydroxylase. It is filed as biochemical, chick embryos. The text has this:
Determination of this inhibitory activity was made by the method of R. E. Rhoads et al. [Methods in Enzymology XVII B, 306 (1971)] using a partially purified enzyme preparation obtained from chick embryos in accordance with the methods of K. I. Kivirriko et al. and J. Halme et al. [J. Biol, Chem. 242, 4007 (1967) and Biochim. Biophys. Acta 198, 460 (1967)] and, as a substrate, (Pro-Pro-Gly)5.4H2 O[prepared by the Protein Research Foundation, Osaka]. In this procedure, the partially purified enzyme was used in an amount of 100 μg as protein.

[2] abbreviates: 17β-estradiol + compound, 0.2 mg/kg i.p. once a day for 6 days.

Structures can show the parent of a compound that is named as a salt.

As for `CC1=C(C)C(=O)C(c2nc3cc(C(C)C(=O)O)ccc3o2)=C(C)C1=O` (stereo not drawn), at 5-lipoxygenase, the inhibition at 1 µM turned out to be 63.5% and the inhibition at 10 µM stood at 79.2%.

With `COC1=C(OC)C(=O)C(/C=C/C(C)=O)=C(C)C1=O` [drawing 31], in the series with collagen biosynthesis (setting [2]), the “Collagen content of uterus” value is 2.98 ± 0.15 mg and the Degree of inhibition was 26%.

As to `COC1=C(OC)C(=O)C(CC=C(C)COc2ccc(CC(=O)O)cc2)=C(C)C1=O` [drawing 38], at 5-lipoxygenase, the inhibition at 1 µM came to 72.2% and the inhibition at 10 µM is 83.3%.

In the case of `COC1=C(C)C(=O)C(COc2ccc(CC(=O)O)cc2)=C(C)C1=O`, on 5-lipoxygenase, the inhibition at 1 µM is 70.1% and the inhibition at 10 µM amounted to 81.5%.

Regarding `COC1=C(OC)C(=O)C(COc2ccc(/C=C/C(=O)O)cc2)=C(C)C1=O` [drawing 32], in the series with collagen biosynthesis (setting [2]), the “Collagen content of uterus” value is listed as 2.77 ± 0.25 mg and the Degree of inhibition amounted to 38%.

For `CCCCCC#CCC#CCC#CCC#CCCCC(=O)O` [ETYA, Eicosatetraynoic acid, reference compound], at 5-lipoxygenase, the inhibition at 1 µM was 35.9% and the inhibition at 10 µM was 39.4%.

For the compound `C[C@]12CC[C@@H]3c4ccc(O)cc4CC[C@H]3[C@@H]1CC[C@@H]2O` [17β-estradiol, reference compound], the “Collagen content of uterus” value in the series with collagen biosynthesis (17β-estradiol alone) worked out at 3.45 ± 0.11 mg. For the same compound, the “Body weight of rats” value in the series on collagen biosynthesis (17β-estradiol alone, 3 rats per group, initial body weight about 41 g) amounted to 73 ± 3 g.

`COC(=O)/C=C/C=C/C=C/C=C/C1=C(C)C(=O)C(OC)=C(OC)C1=O`: in series [1], the inhibition at 10 µM was 38%, at 20 µM the inhibition was 67% and testing at 50 µM gave an inhibition of 76%.

For the compound `COC1=C(OC)C(=O)C(CCCCCCCCCC(=O)N[C@@H](CCSC)C(=O)O)=C(C)C1=O` [m:0, n:9, Z:COMet, 10-(2,3-dimethoxy-5-methyl-1,4-benzoquinon-6-yl)decanoyl-L-methionine], the inhibition at 20 µM in series [1] worked out at 38%.

`COC1=C(OC)C(=O)C(CCC(=O)N[C@@H](Cc2ccc(O)cc2)C(=O)O)=C(C)C1=O` [m:0, n:2, Z:COTyr, 3-(2,3-dimethoxy-5-methyl-1,4-benzoquinon-6-yl)propionyl-L-tyrosine] yielded an inhibition at 20 µM in series [1] of 35%.

Turning to `NC1=NN(c2cccc(C(F)(F)F)c2)CC1` [BW755C, reference compound], at 5-lipoxygenase, the inhibition at 1 µM came out at 21.8% and the inhibition at 10 µM came out at 39.1%.

On to `COC1=C(OC)C(=O)C(/C=C/C(=O)O)=C(C)C1=O` [drawing 30], for which, in the series with collagen biosynthesis (setting [2]), the “Collagen content of uterus” value worked out at 2.53 ± 0.28 mg and the Degree of inhibition was 51%.

Take `COC1=C(OC)C(=O)C(CCCCCCCCCC(=O)N[C@@H](Cc2c[nH]c3ccccc23)C(=O)O)=C(C)C1=O` [m:0, n:9, Z:COTrp, 10-(2,3-dimethoxy-5-methyl-1,4-benzoquinon-6-yl)decanoyl-L-tryptophan]: the inhibition at 20 µM in series [1] came out at 15%.

In series [1], `COC1=C(OC)C(=O)C(CCC(=O)N[C@@H](C)C(=O)O)=C(C)C1=O` [m:0, n:2, Z:CoAla, 3-(2,3-dimethoxy-5-methyl-1,4-benzoquinon-6-yl)propionyl-L-alanine] showed an inhibition at 20 µM of 32%.

In series [1], `COC1=C(OC)C(=O)C(CCC(=O)N[C@@H](CCCNC(=N)N)C(=O)O)=C(C)C1=O` [m:0, n:2, Z:COArg (salt of acetic acid), 3-(2,3-dimethoxy-5-methyl-1,4-benzoquinon-6-yl)propionyl-L-arginine] yielded an inhibition at 20 µM of 56%.

`COC1=C(OC)C(=O)C(CC=C(C)COc2ccc(/C=C/C(=O)O)cc2)=C(C)C1=O`: on 5-lipoxygenase, the inhibition at 1 µM worked out at 76.6% and the inhibition at 10 µM was determined as 85.8%.

As for `COC1=C(OC)C(=O)C(COc2ccc(/C=C/C(=O)O)cc2)=C(C)C1=O` [drawing 37], at 5-lipoxygenase, the inhibition at 1 µM was 73.9% and the inhibition at 10 µM worked out at 83.5%.

For `COC1=C(OC)C(=O)C(CCCCOc2ccc(/C=C/C(=O)O)cc2)=C(C)C1=O`, at 5-lipoxygenase, the inhibition at 1 µM amounted to 72% and the inhibition at 10 µM worked out at 83.1%.

In series [1], `COC1=C(OC)C(=O)C(CCC(=O)NCC(=O)O)=C(C)C1=O` [m:0, n:2, Z:COGly, 3-(2,3-dimethoxy-5-methyl-1,4-benzoquinone-6-yl)propionyl-glycine] came in with an inhibition at 20 µM of 46%.

For the compound `COC1=C(OC)C(=O)C(CCCCCCCCCC(=O)N[C@@H](CCCNC(=N)N)C(=O)O)=C(C)C1=O` [n: 9, Z:CONHArg, 10-(2,3-dimethoxy-5-methyl-1,4-benzoquinon-6-yl)decanoyl-L-arginine], in the series with collagen biosynthesis (setting [2]), the “Collagen content of uterus” value turned out to be 2.86 ± 0.75 mg and the Degree of inhibition came out at 33%.

Consider `COC1=C(OC)C(=O)C(c2nc3cc(C(C)C(=O)O)ccc3o2)=C(C)C1=O` (stereo not drawn), for which, in series [1], the inhibition at 10 µM stood at 54%, testing at 20 µM gave an inhibition of 76% and the inhibition at 50 µM was found to be 84%.

Regarding `COC1=C(OC)C(=O)C(CCCCCCCCCC(=O)N[C@@H](CCCNC(=N)N)C(=O)O)=C(C)C1=O` [m:0, n:9, Z:COArg (salt of acetic acid), 10-(2,3-dimethoxy-5-methyl-1,4-benzoquinon-6-yl)decanoyl-L-arginine], the inhibition at 20 µM in series [1] was 52%.

In series [1], `COC1=C(OC)C(=O)C(CC=C(C)COc2ccc(CC(=O)O)cc2)=C(C)C1=O` [drawing 20] gave an inhibition at 10 µM of 34%, an inhibition at 20 µM of 48% and an inhibition at 50 µM of 92%.

Values taken from patent US4874752A, “Benzoquinone derivatives and production thereof” (Takeda Chemical Industries, Ltd., priority 1982, dated 1989).
